Test results reported in patent US20040009197A1 (priority 2000, published 2004).
Values joined by “and” are separate entries in the source; they are usually repeats but may differ in a detail not shown here. Equal entries are not always repeated. Where two headings read alike, the source gives them in different places. One block for each compound: values may come before it.

Experiment: UV spectrum: absorption maxima, molar extinction coefficient and K value
Type: physicochemical
Settings: for εM: in M-1·cm-1 (unit assumed); for UV absorption peaks: does not depend on the solvent nature and pH values

Compound: CCOC(=O)c1ccc(N(CC(C)O)CC(C)O)cc1 (stereo not shown) [Ethyl dihydroxypropyl PABA, Ethyl-4-bis(2-hydroxypropyl)amino benzoic acid]
K value: 119 | Max ads.: 311 | εM (Molar extinction coefficient): 27,000

Compound: CCCCC(CC)COC(=O)c1ccccc1O (stereo not shown) [Octyl salicylate, 2-ethylhexyl salicylate]
Max ads. (Solvent system Ethanol): 307

Compound: CCCCC(CC)COC(=O)c1ccc(N(C)C)cc1 (stereo not shown) [Octyl dimethyl PABA, 2-ethylbexyl p-dimethylaminobenzoate]
Max ads. (Solvent system Ethanol): 311

Compound: CC(C)c1ccc(C(=O)CC(=O)c2ccccc2)cc1 [4-isopropyl dibenzoyl methane, 1-p-cumenyl-3-phenylpropane-1,3-dione]
Max ads. (Solvent system Ethanol): 345

Compound: Diethanolamine methoxy hydroxycinnamate [DEA methoxycinnamate]
K value: 79

Compound: Nc1ccc(C(=O)O)cc1 [PABA, 4-amino benzoic acid]
Max ads. (Solvent system Ethanol): 283

Next, values leading:

Max ads. (0,1 N NaOH): 305
Compound: O=S(=O)(O)c1ccc2nc(-c3ccccc3)[nH]c2c1 [Novantisol, 2-phenyl-benzimidazole-5-sulphonic acid]

Max ads. (Solvent system Ethanol): 297
Compound: Nc1ccc(C(=O)OCC(O)CO)cc1 (stereo not shown) [Glyceryl PABA, 1,2,3-propanetriol,]

Max ads. (Solvent system Ethanol): 311
Compound: CCCCC(CC)COC(=O)C=Cc1ccc(OC)cc1 (stereo not shown) [Octyl methoxycinnamate, 2-ethylhexyl-p-methoxycinnamate]

Max ads. (Solvent system Ethanol): 300
Compound: Cc1ccc(C=C2C(=O)C3(C)CCC2C3(C)C)cc1 (stereo not shown) [3-(4-methylbenzylidene)-camphor, 3-(4-methylbenzylidene)-bornan-2-one]

εM (at 216 nm): 19,836 | εM (at 305 nm): 28,044 | εM (at 309 nm): 27,816 | UV absorption peaks: 216 nm and 305 nm and 309 nm | UV absorption peaks (listed as resveratrol): 305 nm and 309 nm
Compound: 3,4,5-trihydroxystilbene [Resveratrol]

Max ads. (Solvent system Ethanol): 306
Compound: CC1CC(OC(=O)c2ccccc2O)CC(C)(C)C1 (stereo not shown) [Homosalate, 3,3,5-trimethyl cyclohexyl-2-h drox benzoate]

Max ads. (Solvent system Ethanol): 358
Compound: COc1ccc(C(=O)CC(=O)c2ccc(C(C)(C)C)cc2)cc1 [Butyl methoxy dibenzoyl methane, 4-t-butyl-4′-methoxydibenzoyl methane]
